According to patent USRE47141E1, “Methods of treating fibrosis, cancer and vascular injuries” (EWHA University—Industry Collaboration Foundation, priority 2010, dated 2018):

What was measured:
[1] = tested on: bile duct-ligated (BDL) rats; experiment: Anti-fibrotic effect on bile duct-ligated liver fibrosis model; type: in vivo; details: for Body weight / Organ weight Liver / Organ weight Liver/Body / Organ weight Spleen / Organ weight Spleen/Body: BDL rats, mean ± S.E.
[2] = biological target: ALK4 (Homo sapiens (Human), UniProt P36896); experiment: Cell-free assay for inhibition of ALK4 kinase phosphorylation; type: biochemical
Sequence of ALK4 (P36896 24-505): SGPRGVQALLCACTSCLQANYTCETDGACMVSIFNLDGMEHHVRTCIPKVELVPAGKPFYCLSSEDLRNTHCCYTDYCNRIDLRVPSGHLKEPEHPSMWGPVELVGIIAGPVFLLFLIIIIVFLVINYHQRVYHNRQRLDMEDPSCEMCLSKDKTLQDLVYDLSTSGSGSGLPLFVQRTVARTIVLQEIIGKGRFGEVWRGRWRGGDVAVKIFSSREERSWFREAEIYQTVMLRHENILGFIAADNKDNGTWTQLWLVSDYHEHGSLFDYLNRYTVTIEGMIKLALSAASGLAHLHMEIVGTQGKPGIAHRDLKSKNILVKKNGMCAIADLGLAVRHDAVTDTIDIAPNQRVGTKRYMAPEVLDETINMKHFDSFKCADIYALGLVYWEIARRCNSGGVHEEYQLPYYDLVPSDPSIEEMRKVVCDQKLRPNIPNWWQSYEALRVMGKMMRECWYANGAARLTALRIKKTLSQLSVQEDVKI
Description: ALK5 protein was expressed in Sf9 insect cells as human recombinant GST-fusion protein using the baculovirus expression system. Expressed protein was purified by affinity chromatography using GSH-agarose (Sigma-Aldrich). Kinase assay was performed in 96-well FlashPlates™ from Perkin Elmer (Boston, Mass., USA) in a 50 μL reaction volume. The reaction cocktail was pipetted in four steps in the following order: 20 μL of assay buffer (standard buffer), 5 μL of ATP solution in H2O, 5 μL of each test compounds of formula (I) in 10% DMSO, 10 μL of GSK3 (14-27) (200 ng)/10 μL of ALK5 solution (1 ng) (premixed). The reaction cocktail contained 60 mM HEPES-NaOH, pH 7.5, 3 mM MgCl2, 3 mM MnCl2, […], 1.2 mM DTT, 50 μg/mL PEG20000, 1 μM [γ-^33P]-ATP (approximately 2.5×10^5 cpm per well), 200 ng/10 μL GSK3 (14-27), and 1 ng/10 μL ALK5. The reaction cocktail was incubated at 30° C. for 60 min. […] Incorporation of ^33Pi (counting of “cpm”) was determined with a microplate scintillation counter (Microbeta, Wallac).
Inhibition of the ALK4 kinase phosphorylation by test compounds of formula (I) can be determined in a similar manner to that described above for ALK5 inhibition except that GST-tagged ALK4 (Invitrogen Corporation) and RBER-CHKtide are used in place of the GST-tagged ALK5 and GSK3 (14-27).

[3] = tested on: MCF10A cells; experiment: Cell growth study (SRB assay), MCF10A; type: cell-based; details: 0.2% serum medium, four days
Description: Either 4T1 cells or MCF10A cells were seeded in 96-well plate at 5×10^3 cells per well. […] After incubation for four days, cell viability was determined by SRB assay.

[4] = tested on: BALB/c 4T1 xenografted mice; experiment: Anti-metastatic effect on BALB/c 4T1 xenografted mice model; type: in vivo
Description: Female BALB/c mice were purchased from Orient Bio Inc. (Seoul, Korea). Animals were maintained in a temperature-controlled room (22° C.) and supplied with food and water ad libitum. 4T1 cells (1.2×10^4 cells) were suspended in PBS and implanted into the left #4 mammary fat pad of five to six-week-old female BALB/c mice (day 0). In Experiment 1, treatment was started after tumor implantation (day 0). […] In Experiment 2, treatment was started on day 4. […] In Experiment 3, treatment was started on day 4. […] In Experiment 4, 4T1 cells (1×10^4 cells) were suspended in PBS and implanted into the left #4 mammary fat pad of ten-week-old female BALB/c mice (day 0). Treatment was started on day 10. Example 61 (43.6 mg/kg) dissolved in saline was given to mice intraperitoneally every other day for 2.5 weeks. In all Experiments, mice were sacrificed at 24 to 72 h after the last dosing, and 15% India ink solution (Hardy Diagnostics) in PBS was immediately injected into the trachea. […] Number of metastatic nodule was counted on the surface of left lobe of lung, and picture of lung was taken with digital camera. The tumor size was measured using calipers, and the tumor volume was calculated by using the following equation: Tumor volume=(0.5236)×(width)^2×(length)
Either vehicle buffer (4 mM HCl, 1 mg/mL BSA) or TGF-β1 (50 ng/mouse) in vehicle buffer was given to mice intravenously at 2 h before mice were sacrificed. Tumor tissues from mice were lysed in RIPA buffer [50 mM Tris, pH 7.5, 150 mM NaCl, 0.1% sodium dodecyl sulfate, 0.5% sodium deoxycholate, 1% NP-40, 1 mM NaF, 1 mM Na3VO4, 1 mM PMSF, a protease inhibitor cocktail (1 tablet of Roche Diagnostics GmbH protease inhibitor cocktail/10 mL) (Roche)] for 20 min on ice. Lysates were cleared by centrifugation at 13000 rpm at 4° C. for 20 min. Protein content of supernatants was determined using Micro-BCA (bicinchoninic acid) protein assay kit (Thermo Scientific). Lysates containing 20-50 μg total protein were separated by electrophoresis on polyacrylamide gel and then electrophoretically transferred to polyvinylidene difluoride transfer membranes (Millipore, Billerica, Mass., USA). Membranes were blocked with 5% BSA (Sigma-Aldrich) in PBS containing 0.5% Tween-20 (PBST) for 1 h and incubated overnight at 4° C. with one of following antibodies: anti-phospho-Smad2 (Millipore), anti-Smad2/3 (BD Transduction Laboratories, NJ, USA), or anti-β-actin (Sigma-Aldrich) in PBST containing 1% BSA. […] Bound antibodies were detected using Western Blotting Luminol Reagent (SantaCruz Biotechnology). Band intensities were analyzed using a densitometer LAS-3000 imager (FUJIFILM, Tokyo, Japan).

[5] = 5 mg/kg orally three times per week for four weeks
[6] = 10 mg/kg orally three times per week for four weeks
[7] = 20 mg/kg orally three times per week for four weeks
[8] = orally three times per week for four weeks, Example 2 5, 10, 20 mg/kg, Example 3 21.8, 43.6 mg/kg
[9] = orally three times per week for four weeks, Western blot

Cc1cccc(-c2[nH]c(CNc3ccccc3F)nc2-c2ccc3ncnn3c2)n1 [Example 2, N-((4-([1,2,4]triazolo[1,5-a]pyridin-6-yl)-5-(6-methylpyridin-2-yl)-1H-imidazol-2-yl)methyl)-2-fluoroaniline]
Body weight [1, 5]: 324 ± 7.3 g | Organ weight Liver [1, 5]: 17.5 ± 1.82 g | Organ weight Liver/Body [1, 5]: 5.46 ± 0.62% | Organ weight Spleen [1, 5]: 2.00 ± 0.28 g | Organ weight Spleen/Body [1, 5]: 0.63 ± 0.09 % | Body weight [1, 6]: 312 ± 10.4 g | Organ weight Liver [1, 6]: 15.8 ± 1.88 g | Organ weight Liver/Body [1, 6]: 5.08 ± 0.60% | Organ weight Spleen [1, 6]: 1.57 ± 0.12 g | Organ weight Spleen/Body [1, 6]: 0.51 ± 0.05 % | Body weight [1, 7]: 312 ± 8.4 g | Organ weight Liver [1, 7]: 15.2 ± 1.80 g | Organ weight Liver/Body [1, 7]: 4.88 ± 0.63% | Organ weight Spleen [1, 7]: 1.50 ± 0.16 g | Organ weight Spleen/Body [1, 7]: 0.48 ± 0.05 % | BDL-induced histological change ([1]; liver, H&E staining): greatly abolished | body weight loss in BDL rats [1, 8]: recovered | organ (liver and spleen) weight in BDL rats [1, 8]: decreased | serum ALT in BDL rats [1, 8]: improved | serum AST in BDL rats [1, 8]: improved | fibronectin in BDL rat liver [1, 9]: suppressed | α-SMA in BDL rat liver [1, 9]: suppressed | IC50 [2]: 17.3 nM | MCF10A cell growth [3]: slightly increased | number of metastastic nodules on the lung ([4]; Example 3 13.6 or 27.3 mg/kg orally BID, four weeks, Example 2 5, 10, 20, or 40 mg/kg orally, Example 61 43.6 mg/kg intraperitoneally every other day, 2.5 weeks): significantly reduced | TGF-β1-induced Smad2 phosphorylation in tumor tissues ([4]; Experiment 3, 5, 10, 20, or 40 mg/kg orally every other day for 24 days, Western blot): suppressed
